Assay results: article PMC6886798, “Expression of myeloid Src-family kinases is associated with poor prognosis in AML and influences Flt3-ITD kinase inhibitor acquired resistance” (PLoS ONE, 2019)

How the values were obtained:
Assay in all cases: KINOMEscan
Assay type in all cases: binding
Details in all cases: 1.0 µM
ROS1 = target: T1, ROS1 (Homo sapiens, UniProt P08922)
T1 construct: purchased Eurofins/DiscoverX KINOMEscan scanMAX
Description: (§1) Kinase retention to the immobilized ligand is then measured using quantitative real-time PCR for each kinase-specific DNA barcode.

PLK4 = target: T2, PLK4 (Homo sapiens, UniProt O00444)
T2 construct: purchased Eurofins/DiscoverX KINOMEscan scanMAX
Description: as §1

RIOK2 = target: T3, RIOK2 (Homo sapiens, UniProt Q9BVS4)
T3 construct: purchased Eurofins/DiscoverX KINOMEscan scanMAX
Description: as §1

[1] = target: T4, ABL1(F317L)-phosphorylated (Homo sapiens, UniProt P00519, F317L)
T4 construct: purchased Eurofins/DiscoverX KINOMEscan scanMAX
Description: as §1

LZK = target: T5, LZK (Homo sapiens, UniProt O43283)
T5 construct: purchased Eurofins/DiscoverX KINOMEscan scanMAX
T5 sequence (O43283 whole entry): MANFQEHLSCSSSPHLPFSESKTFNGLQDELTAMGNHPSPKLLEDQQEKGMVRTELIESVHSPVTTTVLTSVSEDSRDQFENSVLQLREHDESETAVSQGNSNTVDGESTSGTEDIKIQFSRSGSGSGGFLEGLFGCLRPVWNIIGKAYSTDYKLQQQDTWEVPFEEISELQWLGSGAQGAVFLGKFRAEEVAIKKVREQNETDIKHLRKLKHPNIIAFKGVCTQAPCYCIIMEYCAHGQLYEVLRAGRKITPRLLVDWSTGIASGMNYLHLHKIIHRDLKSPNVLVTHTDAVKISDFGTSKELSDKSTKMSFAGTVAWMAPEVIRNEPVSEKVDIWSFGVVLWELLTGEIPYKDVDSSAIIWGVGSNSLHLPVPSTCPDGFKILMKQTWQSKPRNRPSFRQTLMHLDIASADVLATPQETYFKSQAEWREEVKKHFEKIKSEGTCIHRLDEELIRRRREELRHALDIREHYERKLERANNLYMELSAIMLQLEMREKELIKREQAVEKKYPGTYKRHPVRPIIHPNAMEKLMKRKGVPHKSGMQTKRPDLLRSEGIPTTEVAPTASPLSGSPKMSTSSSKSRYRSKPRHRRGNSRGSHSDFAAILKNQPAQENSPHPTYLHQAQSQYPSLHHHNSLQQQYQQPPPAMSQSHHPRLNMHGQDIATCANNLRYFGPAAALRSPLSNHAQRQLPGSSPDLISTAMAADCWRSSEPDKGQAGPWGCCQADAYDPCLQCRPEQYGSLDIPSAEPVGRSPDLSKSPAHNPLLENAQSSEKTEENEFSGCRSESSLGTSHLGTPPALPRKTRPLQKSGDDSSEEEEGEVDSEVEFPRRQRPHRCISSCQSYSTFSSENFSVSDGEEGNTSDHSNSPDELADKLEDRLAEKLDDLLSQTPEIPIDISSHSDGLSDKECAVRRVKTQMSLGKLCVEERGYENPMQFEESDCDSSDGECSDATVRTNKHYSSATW
Description: as §1

[2] = target: T6, RSK2(Kin.Dom.1-N-terminal) (Homo sapiens, UniProt P51812)
T6 construct: RSK2(Kin.Dom.1-N-terminal); purchased Eurofins/DiscoverX KINOMEscan scanMAX
T6 sequence (P51812 68-397 limits assumed): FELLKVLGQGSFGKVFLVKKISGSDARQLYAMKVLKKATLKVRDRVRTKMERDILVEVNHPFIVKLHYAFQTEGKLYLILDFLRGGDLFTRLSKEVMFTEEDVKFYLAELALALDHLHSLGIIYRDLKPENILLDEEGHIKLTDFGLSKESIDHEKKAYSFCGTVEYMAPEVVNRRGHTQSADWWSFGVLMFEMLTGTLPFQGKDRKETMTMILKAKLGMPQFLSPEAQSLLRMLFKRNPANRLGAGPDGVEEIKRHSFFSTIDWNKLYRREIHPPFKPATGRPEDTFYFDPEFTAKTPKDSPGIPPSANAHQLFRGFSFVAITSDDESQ
Description: as §1

CAMKK2 = target: T7, CAMKK2 (Homo sapiens, UniProt Q96RR4)
T7 construct: purchased Eurofins/DiscoverX KINOMEscan scanMAX
Description: as §1

[3] = target: T8, JAK1(JH1domain-catalytic) (Homo sapiens, UniProt P23458)
T8 construct: JAK1(JH1domain-catalytic); purchased Eurofins/DiscoverX KINOMEscan scanMAX
T8 sequence (P23458 866-1154 limits assumed): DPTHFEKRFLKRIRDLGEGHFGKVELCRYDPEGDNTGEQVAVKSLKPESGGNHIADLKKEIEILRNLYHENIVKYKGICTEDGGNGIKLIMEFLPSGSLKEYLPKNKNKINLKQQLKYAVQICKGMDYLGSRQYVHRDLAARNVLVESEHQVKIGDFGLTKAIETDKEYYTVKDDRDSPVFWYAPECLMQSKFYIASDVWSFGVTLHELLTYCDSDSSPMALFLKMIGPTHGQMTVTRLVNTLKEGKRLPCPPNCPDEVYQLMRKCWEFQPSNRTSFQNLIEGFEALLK
Description: as §1

PIP5K1C = target: T9, PIP5K1C (Homo sapiens, UniProt O60331)
T9 construct: purchased Eurofins/DiscoverX KINOMEscan scanMAX
Description: as §1

FYN = target: T10, FYN (Homo sapiens, UniProt P06241)
T10 construct: purchased Eurofins/DiscoverX KINOMEscan scanMAX
Description: as §1

YSK4 = target: T11, YSK4 (Homo sapiens, UniProt Q56UN5)
T11 construct: purchased Eurofins/DiscoverX (KINOMEscan scanMAX service)
Description: as §1

TAK1 = target: T12, TAK1 (Homo sapiens, UniProt O43318)
T12 construct: purchased Eurofins/DiscoverX KINOMEscan scanMAX
T12 sequence (O43318 whole entry): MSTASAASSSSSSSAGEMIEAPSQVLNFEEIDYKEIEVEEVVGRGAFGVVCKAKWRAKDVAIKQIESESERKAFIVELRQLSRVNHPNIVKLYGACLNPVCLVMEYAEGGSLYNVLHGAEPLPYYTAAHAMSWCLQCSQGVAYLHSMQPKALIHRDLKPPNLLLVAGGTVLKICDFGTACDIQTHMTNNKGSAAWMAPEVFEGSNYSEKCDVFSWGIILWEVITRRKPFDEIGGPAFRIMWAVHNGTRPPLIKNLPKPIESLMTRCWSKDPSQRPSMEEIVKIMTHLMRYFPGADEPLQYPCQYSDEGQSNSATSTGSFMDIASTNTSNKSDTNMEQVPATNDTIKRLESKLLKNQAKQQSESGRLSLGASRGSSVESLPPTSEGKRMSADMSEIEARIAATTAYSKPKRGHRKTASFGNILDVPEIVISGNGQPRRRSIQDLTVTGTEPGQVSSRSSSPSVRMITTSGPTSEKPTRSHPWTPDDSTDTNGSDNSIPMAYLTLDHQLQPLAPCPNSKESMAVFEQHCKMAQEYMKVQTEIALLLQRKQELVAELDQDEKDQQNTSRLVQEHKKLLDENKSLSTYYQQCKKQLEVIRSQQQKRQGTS
Description: as §1

AKT3 = target: T13, AKT3 (Homo sapiens, UniProt Q9Y243)
T13 construct: purchased Eurofins/DiscoverX KINOMEscan scanMAX
Description: as §1

PRKR = target: T14, PRKR (Homo sapiens, UniProt P19525)
T14 construct: purchased Eurofins/DiscoverX KINOMEscan scanMAX
T14 sequence (P19525 whole entry): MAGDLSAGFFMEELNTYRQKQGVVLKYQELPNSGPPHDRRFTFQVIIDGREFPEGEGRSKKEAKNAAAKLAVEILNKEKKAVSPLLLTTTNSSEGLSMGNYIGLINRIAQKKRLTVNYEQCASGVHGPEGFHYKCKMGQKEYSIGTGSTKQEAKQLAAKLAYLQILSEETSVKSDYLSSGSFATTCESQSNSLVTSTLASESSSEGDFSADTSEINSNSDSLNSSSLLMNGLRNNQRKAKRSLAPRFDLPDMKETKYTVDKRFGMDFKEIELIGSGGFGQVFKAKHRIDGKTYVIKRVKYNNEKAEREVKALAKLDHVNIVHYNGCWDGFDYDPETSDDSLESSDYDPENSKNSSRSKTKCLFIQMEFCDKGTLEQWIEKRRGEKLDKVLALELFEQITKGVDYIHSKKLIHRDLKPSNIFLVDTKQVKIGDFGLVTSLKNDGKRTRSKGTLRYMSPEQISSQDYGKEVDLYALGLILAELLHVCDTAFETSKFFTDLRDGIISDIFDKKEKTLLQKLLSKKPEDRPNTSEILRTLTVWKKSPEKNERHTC
Description: as §1

ADCK3 = target: T15, ADCK3 (Homo sapiens, UniProt Q8NI60)
T15 construct: purchased Eurofins/DiscoverX KINOMEscan scanMAX
Description: as §1

EPHB3 = target: T16, EPHB3 (Homo sapiens, UniProt P54753)
T16 construct: purchased Eurofins/DiscoverX KINOMEscan scanMAX
Description: as §1

ROCK2 = target: T17, ROCK2 (Homo sapiens, UniProt O75116)
T17 construct: purchased Eurofins/DiscoverX KINOMEscan scanMAX
Description: as §1

MLK3 = target: T18, MLK3 (Homo sapiens, UniProt Q16584)
T18 construct: purchased Eurofins/DiscoverX KINOMEscan scanMAX
Description: as §1

[4] = target: T19, RSK3(Kin.Dom.1-N-terminal) (Homo sapiens, UniProt Q15349)
T19 construct: RSK3(Kin.Dom.1-N-terminal); purchased Eurofins/DiscoverX KINOMEscan scanMAX
T19 sequence (Q15349 59-388 limits assumed): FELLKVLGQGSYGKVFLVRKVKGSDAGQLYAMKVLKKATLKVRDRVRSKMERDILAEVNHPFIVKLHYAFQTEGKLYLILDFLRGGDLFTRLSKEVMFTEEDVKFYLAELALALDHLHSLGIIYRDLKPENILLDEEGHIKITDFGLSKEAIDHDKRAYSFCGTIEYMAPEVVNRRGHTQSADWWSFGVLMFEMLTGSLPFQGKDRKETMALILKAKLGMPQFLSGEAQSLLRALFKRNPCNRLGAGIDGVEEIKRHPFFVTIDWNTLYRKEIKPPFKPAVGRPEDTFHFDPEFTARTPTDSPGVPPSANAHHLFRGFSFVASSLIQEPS
Description: as §1

ERK4 = target: T20, ERK4 (Homo sapiens, UniProt P31152)
T20 construct: purchased Eurofins/DiscoverX KINOMEscan scanMAX
Description: as §1

ALK(L1196M) = target: T21, ALK(L1196M) (Homo sapiens, UniProt Q9UM73, L1196M)
T21 construct: purchased Eurofins/DiscoverX KINOMEscan scanMAX
Description: as §1

CDKL2 = target: T22, CDKL2 (Homo sapiens, UniProt Q92772)
T22 construct: purchased Eurofins/DiscoverX KINOMEscan scanMAX
T22 sequence (Q92772 whole entry): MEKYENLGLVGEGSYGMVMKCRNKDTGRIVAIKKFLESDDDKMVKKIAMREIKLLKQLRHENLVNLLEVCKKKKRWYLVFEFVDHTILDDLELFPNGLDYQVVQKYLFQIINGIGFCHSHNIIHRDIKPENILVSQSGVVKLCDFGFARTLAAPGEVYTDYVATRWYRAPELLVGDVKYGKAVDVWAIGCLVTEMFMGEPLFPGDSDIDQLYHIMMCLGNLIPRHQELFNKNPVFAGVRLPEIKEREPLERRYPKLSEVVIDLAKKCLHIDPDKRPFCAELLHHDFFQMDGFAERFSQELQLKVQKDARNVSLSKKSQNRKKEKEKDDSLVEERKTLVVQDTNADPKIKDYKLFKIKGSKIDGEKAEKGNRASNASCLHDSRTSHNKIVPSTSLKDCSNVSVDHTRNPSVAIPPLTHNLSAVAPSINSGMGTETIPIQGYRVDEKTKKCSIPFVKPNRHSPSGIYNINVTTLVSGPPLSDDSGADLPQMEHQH
Description: as §1

TAOK1 = target: T23, TAOK1 (Homo sapiens, UniProt Q7L7X3)
T23 construct: purchased Eurofins/DiscoverX KINOMEscan scanMAX
Description: as §1

CASK = target: T24, CASK (Homo sapiens, UniProt O14936)
T24 construct: purchased Eurofins/DiscoverX KINOMEscan scanMAX
Description: as §1

ITK = target: T25, ITK (Homo sapiens, UniProt Q08881)
T25 construct: purchased Eurofins/DiscoverX KINOMEscan scanMAX
Description: as §1

p38-beta = target: T26, p38-beta (Homo sapiens, UniProt Q15759)
T26 construct: purchased Eurofins/DiscoverX KINOMEscan scanMAX
Description: as §1

MARK2 = target: T27, MARK2 (Homo sapiens, UniProt Q7KZI7)
T27 construct: purchased Eurofins/DiscoverX KINOMEscan scanMAX
Description: as §1

SRPK3 = target: T28, SRPK3 (Homo sapiens, UniProt Q9UPE1)
T28 construct: purchased Eurofins/DiscoverX KINOMEscan scanMAX
Description: as §1

RET = target: T29, RET (Homo sapiens, UniProt P07949)
T29 construct: purchased Eurofins/DiscoverX KINOMEscan scanMAX
Description: as §1

PIK3C2G = target: T30, PIK3C2G (Homo sapiens, UniProt O75747)
T30 construct: purchased Eurofins/DiscoverX KINOMEscan scanMAX
Description: as §1

p38-delta = target: T31, p38-delta (Homo sapiens, UniProt O15264)
T31 construct: purchased Eurofins/DiscoverX KINOMEscan scanMAX
Description: as §1

AKT1 = target: T32, AKT1 (Homo sapiens, UniProt P31749)
T32 construct: purchased Eurofins/DiscoverX KINOMEscan scanMAX
Description: as §1

TGFBR2 = target: T33, TGFBR2 (Homo sapiens, UniProt P37173)
T33 construct: purchased Eurofins/DiscoverX KINOMEscan scanMAX
Description: as §1

MAP3K2 = target: T34, MAP3K2 (Homo sapiens, UniProt Q9Y2U5)
T34 construct: purchased Eurofins/DiscoverX KINOMEscan scanMAX
Description: as §1

KIT(V559D,V654A) = target: T35, KIT(V559D,V654A) (Homo sapiens, UniProt P10721, V559D/V654A)
T35 construct: purchased Eurofins/DiscoverX KINOMEscan scanMAX
Description: as §1

CSNK1A1L = target: T36, CSNK1A1L (Homo sapiens, UniProt Q8N752)
T36 construct: purchased Eurofins/DiscoverX KINOMEscan scanMAX
Description: as §1

[5] = target: T37, ABL1(F317L)-nonphosphorylated (Homo sapiens, UniProt P00519, F317L)
T37 construct: purchased Eurofins/DiscoverX KINOMEscan scanMAX
Description: as §1

AURKB = target: T38, AURKB (Homo sapiens, UniProt Q96GD4)
T38 construct: purchased Eurofins/DiscoverX KINOMEscan scanMAX
Description: as §1

TESK1 = target: T39, TESK1 (Homo sapiens, UniProt Q15569)
T39 construct: purchased Eurofins/DiscoverX KINOMEscan scanMAX
Description: as §1

MET(M1250T) = target: T40, MET(M1250T) (Homo sapiens, UniProt P08581, M1250T)
T40 construct: purchased Eurofins/DiscoverX KINOMEscan scanMAX
T40 sequence (P08581 25-1390 M1250T): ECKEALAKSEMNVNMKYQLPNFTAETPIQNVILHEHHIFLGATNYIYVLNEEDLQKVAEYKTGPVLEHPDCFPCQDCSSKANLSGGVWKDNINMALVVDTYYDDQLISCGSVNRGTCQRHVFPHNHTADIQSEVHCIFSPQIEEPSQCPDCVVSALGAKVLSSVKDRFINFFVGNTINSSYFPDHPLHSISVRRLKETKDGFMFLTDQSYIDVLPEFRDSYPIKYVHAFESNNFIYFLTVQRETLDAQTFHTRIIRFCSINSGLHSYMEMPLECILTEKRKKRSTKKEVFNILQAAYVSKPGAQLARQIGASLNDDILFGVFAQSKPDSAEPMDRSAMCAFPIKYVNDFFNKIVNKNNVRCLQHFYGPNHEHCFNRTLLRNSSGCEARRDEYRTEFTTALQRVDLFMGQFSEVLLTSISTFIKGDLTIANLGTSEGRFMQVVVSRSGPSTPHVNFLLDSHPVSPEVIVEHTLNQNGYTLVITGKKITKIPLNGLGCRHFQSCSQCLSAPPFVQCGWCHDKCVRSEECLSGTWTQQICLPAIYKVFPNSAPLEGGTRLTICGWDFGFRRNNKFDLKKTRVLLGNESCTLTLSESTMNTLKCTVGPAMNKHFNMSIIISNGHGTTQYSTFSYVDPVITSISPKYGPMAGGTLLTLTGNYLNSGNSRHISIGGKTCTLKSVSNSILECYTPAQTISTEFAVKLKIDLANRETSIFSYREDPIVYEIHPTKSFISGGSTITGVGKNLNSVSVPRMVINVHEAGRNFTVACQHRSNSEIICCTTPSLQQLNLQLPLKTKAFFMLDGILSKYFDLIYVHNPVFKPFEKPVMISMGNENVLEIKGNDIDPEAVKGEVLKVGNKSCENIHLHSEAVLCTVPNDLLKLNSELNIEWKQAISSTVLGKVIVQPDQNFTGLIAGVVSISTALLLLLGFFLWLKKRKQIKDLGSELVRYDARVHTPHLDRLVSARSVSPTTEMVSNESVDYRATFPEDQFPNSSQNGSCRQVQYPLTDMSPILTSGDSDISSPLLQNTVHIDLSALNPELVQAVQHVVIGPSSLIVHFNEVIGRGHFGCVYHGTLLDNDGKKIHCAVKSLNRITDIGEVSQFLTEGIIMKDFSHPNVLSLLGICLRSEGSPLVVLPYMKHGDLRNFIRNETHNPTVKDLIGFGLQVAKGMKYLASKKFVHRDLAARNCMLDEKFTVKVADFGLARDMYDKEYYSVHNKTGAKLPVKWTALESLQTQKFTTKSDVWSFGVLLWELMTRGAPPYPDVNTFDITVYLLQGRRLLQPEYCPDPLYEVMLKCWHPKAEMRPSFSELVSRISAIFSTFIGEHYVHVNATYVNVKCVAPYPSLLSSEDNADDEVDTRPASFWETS
Description: as §1

## CN1CCN(C2CCC(n3cc(-c4ccc(Oc5ccccc5)cc4)c4c(N)ncnc43)CC2)CC1 (stereo not shown) [A-419259]
ROS1
  % Control: 100%
PLK4
  % Control: 100%
RIOK2
  % Control: 100%
[1]
  % Control: 0%
LZK
  % Control: 85%
[2]
  % Control: 16%
CAMKK2
  % Control: 100%
[3]
  % Control: 99%
PIP5K1C
  % Control: 89%
FYN
  % Control: 5.1%
YSK4
  % Control: 58%
TAK1
  % Control: 77%
AKT3
  % Control: 100%
PRKR
  % Control: 100%
ADCK3
  % Control: 100%
EPHB3
  % Control: 100%
ROCK2
  % Control: 62%
MLK3
  % Control: 100%
[4]
  % Control: 22%
ERK4
  % Control: 56%
ALK(L1196M)
  % Control: 68%
CDKL2
  % Control: 70%
TAOK1
  % Control: 100%
CASK
  % Control: 67%
ITK
  % Control: 14%
p38-beta
  % Control: 100%
MARK2
  % Control: 82%
SRPK3
  % Control: 99%
RET
  % Control: 0%
PIK3C2G
  % Control: 100%
p38-delta
  % Control: 99%
AKT1
  % Control: 100%
TGFBR2
  % Control: 100%
MAP3K2
  % Control: 1.7%
KIT(V559D,V654A)
  % Control: 18%
CSNK1A1L
  % Control: 64%
[5]
  % Control: 4.7%
AURKB
  % Control: 100%
TESK1
  % Control: 95%
MET(M1250T)
  % Control: 59%
